# According to patent US20050214285A1, “Epitopes or mimotopes derived from the C-epsilon-3 or C-epsilon-4 domains of IgE, antagonists thereof, and their therapeutic uses” (SmithKline Beecham Biologicals, s.a. and Peptide …, priority 1999, published 2005):
# Test system: PTmAb0011
# Assay: Phage display ranking of peptide ligands for PTmAb0011
# Assay type: binding, mouse
# Conditions: IgEC67 mutants (Table 8)
# From the text: (§1) Phage display libraries were used to map the binding sites of the monoclonal antibodies using three different phage libraries, displaying either the XCX15, XCX10 or XAX10 peptide sequence (where X is any amino acid) at the N-terminus of the phage gVIIIp. Tables 6 and 7 show the results of selecting for peptide ligands with the anti human IgE monoclonal antibodies […]. […]
# (§2) This involved a DNA sub-cloning transfer from the major coat protein (gVIIIp) filamentous phage display vector to a lower copy number minor phage coat protein (gIIIp) display vector with a random PCR step. […] Included in the tables are ranking orders and also BIAcore affinities where available.
row,Sequence,PTmAb Rank 0011
1,ADGAGCFMNKQLVDLELCPRGAAEA [IgEC67-5],1.6
2,ADGAGCFMNNQLADWELCPRAAAEA [IgEC67-6],1.6
3,ADGAGCFMNKQLADLELCPREAAEA [IgEC67-7],1
4,ADGAGCFMNKQMADLELCPREAAEA [IgEC67-10],2.3
5,ADGAGCFMNKQLADLEMCPRDDAEA [IgEC67-9],2.4

# Same assay, conditions: primary phage display biopannings (Table 7)
row,Sequence,Rank (ECL) PTmAb0011
1,DCVVDGDRLVCL [EED34/104],3
2,WCLEPECAPGLL [EED38],330
3,GCPMWPQPDDEC [EED132],28
4,GCPTWPRVGDHC [EED36],52
5,MCQGWEIVSECW [EED57],0
6,RCQSARVVPECW [EED131/138/102],32
7,VCPPGWKNLGCN [EED51],0
8,DCEEPMCSPVLLQKLKP [EEC17/47/25],147
9,DCLSKGQMADLC [EED147/173],281
10,HCEEPEYSPATRVFCGR [EEC51/48/53],75
11,VCDECVSRELAL [EED35/153/164],118
12,VCDECVSRELAL [EED35/53/164],330
13,TCLVDRQESDVC [EED50],6
14,ACFSRNGQVTDVPHSCY [EEC41],31
15,QCVRDGTRKVCM [EED33],7
16,ECNQNLSGSLRHVDLNC [EEC40],547
17,YCPKYPLEGDCLLDNDY [EEC116],4
18,SCAPSGDCGYKG [EED18/47/48],31
19,NCNDNPMLDCMPAWSS [EEC5],0
20,GCQVGELVWCRE [EED134],14
21,RCDQQLPRDSYTFCMMS [EEC115/3/48],438
22,KCPTYPKPNDRCLWPVP [EEC135],19
23,TCGQSELRCASLETHHV [EEC55],0
24,FCPEPICSPPLSRMTLS [EEC147],883
25,HCQQVFFPQDYLWCQRG [EEC36],158
26,ECPRWPLMGDGC [EED139],26
27,RCEQGALRCVGE [EED41/56],0
28,SCQGREVRRECW [EED183],596
29,NCQDQMLREDAGCWSKI [EEC40A],80

# Test system: PTmAb0005
# Assay: Phage display ranking of peptide ligands for PTmAb0005
# Assay type: binding
# Conditions: IgEC67-8 mutants (Table 9)
# Procedure: as §1
# This was performed by introducing random mutations by PCR mutagenesis and sub-cloning into the Fuse 5 vector for minor filamentous phage protein gIIIp display. These, and other results, confirmed the importance of the amino acids within IgEC67 which aligned with the Cε2 epitope. […] Mutations in other sites had little effect on the affinity to PTmAb0005.
# as §2
Sequence,Rel. Rank A,Rel. Rank B
"ADGAGCFIEKQMADMELCQARAAEA [Peptide 1-8, IgEC67-8 mutant clone]",1.08,1.32
"ADGAGCFQNKQMADLELCPREAAEA [Peptide 1-5, IgEC67-8 mutant clone]",1.13,1.73
"ADGAGCFINKQMADMELCPREAAEA [Peptide 2-3, IgEC67-8 mutant clone]",1.03,1.31
"ADGAGCFISPQLADWKRCMREAAEA [6-9,5-1,6-2,6-8,6-4]",1.53,1.19
"ADGAGCFINNQMADLELCPRGGAEA [Peptide 1-11, IgEC67-8 mutant clone]",1.45,1.32
"ADGAGCFINKQMADSELCPAAAAEA [Peptide 1-10, IgEC67-8 mutant clone]",1.10,1.08
"ADGAGCFINKQMADLELCPREGAEA [1-4,1-2,1-12, IgEC67-8 mutant clone]",1.37,1.39
"ADGAGCFIDKQMADLELCPRAAAEA [1-9,2-5, IgEC67-8 mutant clone]",1.21,1.41
"ADGAECFINKQMADRELCAREVAEA [Peptide 2-12, IgEC67-8 mutant clone]",1.22,1.50
"ADGAGCFINKQMADWELCPREGAEA [Peptide 2-15, IgEC67-8 mutant clone]",1.44,1.57
"ADGAGCFINKQMADLELCPRQAAEA [3-1,3-9,3-10, IgEC67-8 mutant clone]",1.54,1.85
"ADGAGCFIEKQMADMELCQRETAEA [Peptide 1-1, IgEC67-8 mutant clone]",1.04,1.29
"ADGAGCFINNQMADLELCPREAAEA [Peptide 5-2, IgEC67-8 mutant clone]",1.04,1.24
"ADGAGCFINKQMADLELCPARAAEA [Peptide 1-7, IgEC67-8 mutant clone]",0.91,1.25
"ADGAGCFINKQMADLELCRREAGEA [2-9,2-6, IgEC67-8 mutant clone]",1.19,1.54
"ADGAGCFINRQLADMELCSRGAAEA [2-11,2-4,2-10,2-7, IgEC67-8 mutant clone]",0.79,1.39

Sequence,Rel. Rank A,Rel. Rank B
"ADGAGCFINKQMADLELCTREAAEA [Peptide 3-11, IgEC67-8 mutant clone]",1.54,2.02
"ADGAECFINRQMADLELCGREAAEA [Peptide 4-4, IgEC67-8 mutant clone]",0.69,1.03
ADGAGCSIHRQMADWERCLREGAEA [Peptide 6-10],0.91,0.69
"ADGAGCFINKQMADLELCPSQAAEA [Peptide 4-9, IgEC67-8 mutant clone]",1.38,1.70
"ADGAGCFIKKQMADLELCPREAWEA [Peptide 4-1, IgEC67-8 mutant clone]",1.24,1.52
"ADGAGCFINKQMSDFELCPREAGEA [Peptide 2-13, IgEC67-8 mutant clone]",1.56,2.14
"ADGAGCFINMQMADQELCPRAAAEA [Peptide 1-3, IgEC67-8 mutant clone]",1.73,1.31
"ADGAECFINKQRADLELCPGEAAEA [4-2,4-3, IgEC67-8 mutant clone]",1.11,1.60
"ADGAGCFINKQMADSELCPREPAEA [Peptide 5-16, IgEC67-8 mutant clone]",1.29,1.83
"ADGAGCFINKQMADLELCPREAAEA [2-8,1-13,4-11,1-14, IgEC67-8 sub-library clone]",1.00,1.00
"ADGAGCFKNKQMVDSELCARQAAEA [Peptide 1-16, IgEC67-8 mutant clone]",1.14,1.17
"ADGAGCSIHTQMADWERCLREGAEA [6-12,5-8]",0.93,0.67
"ADGAGCFINKQMADWELCPREAAEA [Peptide 5-10, IgEC67-8 mutant clone]",1.05,1.83
"ADGAGCFRNKQMADLELCPREAAEA [Peptide 1-6, IgEC67-8 mutant clone]",0.95,1.16
"ADGAGCFINRQMADPELCPREAAEA [Peptide 5-11, IgEC67-8 mutant clone]",1.09,1.97

# Same assay, conditions: IgEC67 mutants (Table 8)
row,Sequence,PTmAb Rank 0005
1,ADGAGCFMNKQLVDLELCPRGAAEA [IgEC67-5],1.9
2,ADGAGCFMNNQLADWELCPRAAAEA [IgEC67-6],1.9
3,ADGAGCFMNKQLADLELCPREAAEA [IgEC67-7],1
4,ADGAGCFMNKQMADLELCPREAAEA [IgEC67-10],4.2
5,ADGAGCFMNKQLADLEMCPRDDAEA [IgEC67-9],2.7

# Same assay, conditions: primary phage display biopannings (Table 6)
row,Sequence,Rank (ECL) PTmAb0005
1,HCCRIDREVSGA [ESB24],0
2,ECRGPNMQMQDHCPTTD [IgEC9],10
3,ECKVDGQLSDSPLLRNN [ESC45],0
4,YQQRDLELLAE [ESB18],0
5,RGRNQIMDLEI [ESB29/36],0
6,GQMMDTELLNR [ESB1/6etc],0
7,SMGQEVDRELV [ESB40],0
8,QIDRQITDTLL [ESB15],0
9,GGWQESDIPGR [ESB32],0
10,CCMADQELDLGHNAANA [ESC20],0
11,CCMTDDPMDPNSTWAIR [ESC12],0
12,CCMSDTPDISRLPVPDS [IgEC72],0
13,CCVSDEPAGVRD [ESD6/10/40],0
14,CCRADFEVGNGG [ESD15],0
15,CAPGMGCWESVK [ESB13],0
16,CCESDIPLNELHALADP [IgEC70],0
17,CCVDDTPNSGLAMRVSK [ESC1],0

row,Sequence,Rank (ECL) PTmAb0005
1,CCEVDDFPTHHPGWTLR [ESC4],0
2,CCKSDIPSPVTQFNTMK [IgEC64],0
3,CCMTDDPMYTNSTWAIR [ESC43],0
4,HCKNEFKKGQWTYSCSD [IgEC43],0
5,CCVMDIEVRGSA [ESD14],0
6,CCVMDLELASGF [ESD36],0
7,AENDQMVDWEI [SB21/33/31],0
8,SMEGQVRDIQV [ESB7],0
9,SCNLNHQSCDIPPVKQI [ESC46],0
10,CCQRDVELVFGS [ESD38],0
11,CQAMDAEILNQV [ESB12],0
12,CCITDVPQGVMYKGSPD [ESC18],0
13,CCLSDDAPTLPVRR [IgEC75],0
14,SMGQKVDRELV [ESB9],0
15,TCCVTDIPPPDYEQSLG [IgEC83],0
16,REQQISDVPRV [ESB26],0
